Assay results as given in patent US10980777B2, “Indole derivatives as histone demethylase inhibitors” (Istituto Europeo di Oncologia S.r.l., priority 2017, dated 2021).
Counter-ions that a name gives are not always drawn. Like-named read-outs stand apart in the source and are kept apart here.

What was measured:
[1] = test system: Human leukemia MV4-11 cells; experiment: Cell growth, CellTiter-Fluor cell viability assay, MV4-11; type: cell-based; settings: 48 h incubation, read-out: IC50 against human leukemia MV4-11 cells
From the text: (§1) CellTiter-Flor® (Promega) is as a nonlytic, single-reagent-addition fluorescence assay that measures the relative number of living cells in a culture population after experimental manipulation. The CellTiter-Fluor™ Cell Viability Assay measures the conserved and constitutive protease activity within live cells and therefore acts as a marker for cell viability.
(§2) Human leukemia MV4-11 cells, (obtained from the Deutsche Sammlung von Mikroorganismen und Zellkulturen, ACC 102) or NB4 cells, (obtained from the Deutsche Sammlung von Mikroorganismen und Zellkulturen) in exponential growth, were incubated for 48 h with different concentrations of the inhibitors. After 48 h a volume of CellTiter-Fluor® Reagent equal to one fifth of volume of cell culture medium was added. The content was mixed and incubates for at least 90 min at 37° C. degree to obtain a stable signal. The fluorescence was recorded using an excitation wavelength of 360 nm and an emission at 535 nm. The IC50 was calculated using GraphPad Software.

[2] = molecular target: T1, human recombinant KDM1A/CoREST protein (Homo sapiens, UniProt O60341); experiment: Assay of enzyme inhibition of KDM1A (LSD1), TR-FRET; type: biochemical
T1 construct: made in house; host or cells: E. coli
Experimental: 2.1 Assay of Enzyme Inhibition of KDM1A (LSD1)
The KDM1A inhibiting activity was determined using a TR-FRET assay (time resolved fluorescence resonance energy transfer, Lance® Ultra Demethylase technology (Perkin Elmer, Waltham, Mass., USA)), which comprises a Europium chelate donor dye (TRF0404, Perkin Elmer, Waltham, Mass., USA) together with ULight™ (TR0102, Perkin Elmer, Waltham, Mass., USA), a small molecular weight acceptor dye with a red-shifted fluorescent emission, and a biotinylated 21 amino acids histone H3-derived monomethylated peptide (H3K4me) [Lys(Me1)4]-Histone H3 (1-21)-GGK(biotin), (64355, Anaspec, Fremont, Calif., USA) as substrate. The intensity of the light emission is proportional to the level of biotinylated reaction product. The complex of human recombinant KDM1A/CoREST protein was produced in E. coli as separate proteins and co-purified as previously described.(Forneris, F. et al. Trends Biochem, Sci, 2008, 33, 181-189) (Forneris, F. et al. J. Biol. Chem. 2007, 282, 20070-20074).
Demethylase Assay conditions: 0.25 nM KDM1A/CoREST protein and compound in 100% DMSO were added in a final volume of 48 μL assay buffer (Tris HCl 50 mM pH 8.8, NaCl 50 mM, DTT 1 mM, Tween-20 0.01% (by volume)) to each well of a 96 well half area flat bottom white plate (3693 Costar, Sigma-Aldrich, St. Louis, M, USA).
Demethylase reaction was started by the addition of 50 nM histone H3K4 monomethylated. After 20 min at RT, 300 μM tranylcypromine (P8511-1G, Sigma-Aldrich, St. Louis, Mo. 63103) was added to stop the reaction.
Detection step conditions: 10 μL of the assay mixture was transferred from the original plate into a 384 well white plate (6007290 OptiPlate™, Perkin Elmer, Waltham, Mass., USA) and 10 μL of the detection Mix containing 2 nM Eu-antibody and 10 nM U-Light-Streptavidin in 1× Lance Detection Buffer (TRF0404, TR0102, CR97100, Perkin Elmer, Waltham, Mass., USA). The resulting mixture was incubated in the dark for 1 h at RT. Then, TR-FRET signal was read by a fluorimeter (Infinite® F200, Tecan, Männedorf, Switzerland) (Excitation 320 nm, Emission 665 nm and 620 nm, delay time 50 μs, window time 100 μs).
IC50 determination: The inhibitor concentrations ranged from 0.025 to 500 μM (serial 1:3 dilutions). The IC50 was calculated using GraphPad Software.

human leukemia NB4 cells = experiment: Cell growth, CellTiter-Fluor cell viability assay, NB4; type: cell-based; settings: NB-4, 48 h incubation, read-out: IC50 against human leukemia NB4 cells
From the text: as §1, §2

[3] = 0.25 nM KDM1A/CoREST, 50 nM H3K4 monomethylated peptide, 20 min at RT, read-out: IC50, KDM1A (LSD1) enzyme inhibition

SMILES	IC50 [1]	IC50 [2, 3]	IC50 (human leukemia NB4 cells)	IC50 [2]
Cn1c(C(=O)c2cn(CCOc3ccc(OC[C@@H]4CCNC4)cc3)c3ccccc23)cc2sccc21 (stereo in doubt) [Compound 15, (4-methylthieno[3,2-b]pyrrol-5-yl)-[1-[2-[4-(pyrrolidin-3-ylmethoxy)phenoxy]ethyl]indol-3-yl]methanone hydrochloride]	< 10 µM	< 0.5 µM	< 10 µM	–
Cn1c(C(=O)c2cn(CCOc3cccc(O[C@@H]4CCCNCC4)c3)c3ccccc23)cc2sccc21 (stereo in doubt) [Compound 20, [1-[2-[3-(azepan-4-yloxy)phenoxy]ethyl]indol-3-yl]-(4-methylthieno[3,2-b]pyrrol-5-yl)methanone hydrochloride]	–	< 0.5 µM	< 10 µM	–
Cn1c(C(=O)c2cn(CCOc3ccc(O[C@H]4CCCNCC4)cc3)c3ccccc23)cc2sccc21 (stereo in doubt) [Compound 21, [1-[2-[4-(azepan-4-yloxy)phenoxy]ethyl]indol-3-yl]-(4-methylthieno[3,2-b]pyrrol-5-yl)methanone hydrochloride]	–	< 0.5 µM	< 10 µM	–
Cn1c(C(=O)c2cn(CCCc3ccc(OC[C@@H]4CCNC4)cc3)c3ccccc23)cc2sccc21 (stereo in doubt) [Compound 22, (4-methylthieno[3,2-b]pyrrol-5-yl)-[1-[3-[4-(pyrrolidin-3-ylmethoxy)phenyl]propyl]indol-3-yl]methanone hydrochloride]	–	< 0.5 µM	< 10 µM	–
Cn1c(C(=O)c2cn(CCCc3ccc(O[C@H]4CCCNCC4)cc3)c3ccccc23)cc2sccc21 (stereo in doubt) [Compound 25, [1-[3-[4-(azepan-4-yloxy)phenyl]propyl]indol-3-yl]-(4-methylthieno[3,2-b]pyrrol-5-yl)methanone hydrochloride]	–	< 0.5 µM	–	–
CCn1c(C(=O)c2cn(CCCc3ccc(OC[C@@H]4CCNC4)cc3)c3ccccc23)cc2sccc21 (stereo in doubt) [Compound 28, (4-ethylthieno[3,2-b]pyrrol-5-yl)-[1-[3-[4-(pyrrolidin-3-ylmethoxy)phenyl]propyl]indol-3-yl]methanone hydrochloride]	–	< 0.5 µM	–	–
Cn1c(C(=O)c2cn(CCCc3ccc(OC[C@@H]4CCNC4)cc3)c3ccccc23)cc2ccsc21 (stereo in doubt) [Compound 29, (6-methylthieno[2,3-b]pyrrol-5-yl)-[1-[3-[4-(pyrrolidin-3-ylmethoxy)phenyl]propyl]indol-3-yl]methanone]	–	< 0.5 µM	–	–
Cn1c(C(=O)c2c[nH]c3ccccc23)cc2sccc21 [Compound 1, 1H-indol-3-yl-(4-methylthieno[3,2-b]pyrrol-5-yl)methanone]	–	< 50 µM	–	–
Cc1ccc2[nH]cc(C(=O)c3cc4sccc4n3C)c2c1 [Compound 2, (5-methyl-1H-indol-3-yl)-(4-methylthieno[3,2-b]pyrrol-5-yl)methanone]	–	< 50 µM	–	–
CCn1c(C(=O)c2c[nH]c3ccccc23)cc2sccc21 [Compound 5, (4-ethylthieno[3,2-b]pyrrol-5-yl)-(1H-indol-3-yl)methanone]	–	< 50 µM	–	–
Cn1c(C(=O)c2c[nH]c3ccccc23)cc2ccsc21 [Compound 6, 1H-indol-3-yl-(6-methylthieno[2,3-b]pyrrol-5-yl)methanone]	–	< 50 µM	–	–
COCCn1cc(C(=O)c2cc3sccc3n2C)c2ccccc21 [Compound 8, [1-(2-Methoxyethyl)indol-3-yl]-(4-methylthieno[3,2-b]pyrrol-5-yl)methanone]	–	–	–	< 50 µM
Cn1c(C(=O)c2cn(CCOc3ccccc3OCC3CCNC3)c3ccccc23)cc2sccc21 (stereo not shown) [Compound 11, (4-Methylthieno[3,2-b]pyrrol-5-yl)-[1-[2-[2-(pyrrolidin-3-ylmethoxy)phenoxy]ethyl]indol-3-yl]methanone hydrochloride]	< 10 µM	< 5 µM	< 10 µM	–
Cn1c(C(=O)c2cn(CCOc3cccc(OCC4CCNC4)c3)c3ccccc23)cc2sccc21 (stereo not shown) [Compound 12, (4-methylthieno[3,2-b]pyrrol-5-yl)-[1-[2-[3-(pyrrolidin-3-ylmethoxy)phenoxy]ethyl]indol-3-yl]methanone]	–	< 0.5 µM	–	–
Cn1c(C(=O)c2cn(CCOc3cccc(OC[C@H]4CCNC4)c3)c3ccccc23)cc2sccc21 [Compound 13, (4-methylthieno[3,2-b]pyrrol-5-yl)-[1-[2-[3-[[(3S)-pyrrolidin-3-yl]methoxy]phenoxy]ethyl]indol-3-yl]methanone hydrochloride]	< 10 µM	< 0.5 µM	< 10 µM	–
Cn1c(C(=O)c2cn(CCOc3cccc(OC[C@@H]4CCNC4)c3)c3ccccc23)cc2sccc21 [Compound 14, (4-methylthieno[3,2-b]pyrrol-5-yl)-[1-[2-[3-[[(3R)-pyrrolidin-3-yl]methoxy]phenoxy]ethyl]indol-3-yl]methanone hydrochloride]	< 10 µM	< 0.5 µM	< 10 µM	–
Cn1c(C(=O)c2cn(CCOc3cccc(OC4CCNCC4)c3)c3ccccc23)cc2sccc21 [Compound 16, (4-methylthieno[3,2-b]pyrrol-5-yl)-[1-[2-[3-(4-piperidyloxy)phenoxy]ethyl]indol-3-yl]methanone hydrochloride]	< 10 µM	< 0.5 µM	< 10 µM	–
Cn1c(C(=O)c2cn(CCOc3ccc(OC4CCNCC4)cc3)c3ccccc23)cc2sccc21 [Compound 17, (4-methylthieno[3,2-b]pyrrol-5-yl)-[1-[2-[4-(4-piperidyloxy)phenoxy]ethyl]indol-3-yl]methanone hydrochloride]	< 10 µM	< 0.5 µM	< 10 µM	–
Cn1c(C(=O)c2cn(CCOc3cccc(OCC4CCNCC4)c3)c3ccccc23)cc2sccc21 [Compound 18, (4-methylthieno[3,2-b]pyrrol-5-yl)-[1-[2-[3-(4-piperidylmethoxy)phenoxy]ethyl]indol-3-yl]methanone hydrochloride]	< 10 µM	< 0.5 µM	< 10 µM	–
Cn1c(C(=O)c2cn(CCCc3ccc(OCC4CCNCC4)cc3)c3ccccc23)cc2sccc21 [Compound 23, (4-methylthieno[3,2-b]pyrrol-5-yl)-[1-[3-[4-(4-piperidylmethoxy)phenyl]propyl]indol-3-yl]methanone hydrochloride]	–	< 0.5 µM	< 10 µM	–
Cn1c(C(=O)c2cn(CCCc3ccc(OC4CCNCC4)cc3)c3ccccc23)cc2sccc21 [Compound 24, (4-methylthieno[3,2-b]pyrrol-5-yl)-[1-[3-[4-(4-piperidyloxy)phenyl]propyl]indol-3-yl]methanone hydrochloride]	–	< 0.5 µM	< 10 µM	–
Cn1c(C(=O)c2cn(CCCc3ccc(OCC4CCNCC4)c(OCC4CCNCC4)c3)c3ccccc23)cc2sccc21 [Compound 26, [1-[3-[3,4-bis(4-piperidylmethoxy)phenyl]propyl]indol-3-yl]-(4-methylthieno[3,2-b]pyrrol-5-yl)methanone]	–	< 0.5 µM	–	–
CCn1c(C(=O)c2cn(CCCc3ccc(OC4CCNCC4)cc3)c3ccccc23)cc2sccc21 [Compound 27, (4-ethylthieno[3,2-b]pyrrol-5-yl)-[1-[3-[4-(4-piperidyloxy)phenyl]propyl]indol-3-yl]methanone hydrochloride]	–	< 0.5 µM	–	–
Cn1c(C(=O)c2cn(CCCc3ccc(OC4CCNCC4)cc3)c3ccccc23)cc2ccsc21 [Compound 30, (6-methylthieno[2,3-b]pyrrol-5-yl)-[1-[3-[4-(4-piperidyloxy)phenyl]propyl]indol-3-yl]methanone]	–	< 0.5 µM	–	–
